Results on 9 compounds are retold here after ChEMBL document CHEMBL5465560, “Selectivity Literature for EUbOPEN Chemogenomic Library” (2024).

The target in test [1] is NT-3 growth factor receptor (Homo sapiens, UniProt Q16288). The test is described as follows: Selectivity interaction (KinomeScan (DiscoverX)) EUB0000607a NTRK3. To be noted: at 10 µM.
In test [2] the target is T1, Serine/threonine-protein kinase LATS1 (Homo sapiens) (UniProt O95835).
T1 sequence (whole entry): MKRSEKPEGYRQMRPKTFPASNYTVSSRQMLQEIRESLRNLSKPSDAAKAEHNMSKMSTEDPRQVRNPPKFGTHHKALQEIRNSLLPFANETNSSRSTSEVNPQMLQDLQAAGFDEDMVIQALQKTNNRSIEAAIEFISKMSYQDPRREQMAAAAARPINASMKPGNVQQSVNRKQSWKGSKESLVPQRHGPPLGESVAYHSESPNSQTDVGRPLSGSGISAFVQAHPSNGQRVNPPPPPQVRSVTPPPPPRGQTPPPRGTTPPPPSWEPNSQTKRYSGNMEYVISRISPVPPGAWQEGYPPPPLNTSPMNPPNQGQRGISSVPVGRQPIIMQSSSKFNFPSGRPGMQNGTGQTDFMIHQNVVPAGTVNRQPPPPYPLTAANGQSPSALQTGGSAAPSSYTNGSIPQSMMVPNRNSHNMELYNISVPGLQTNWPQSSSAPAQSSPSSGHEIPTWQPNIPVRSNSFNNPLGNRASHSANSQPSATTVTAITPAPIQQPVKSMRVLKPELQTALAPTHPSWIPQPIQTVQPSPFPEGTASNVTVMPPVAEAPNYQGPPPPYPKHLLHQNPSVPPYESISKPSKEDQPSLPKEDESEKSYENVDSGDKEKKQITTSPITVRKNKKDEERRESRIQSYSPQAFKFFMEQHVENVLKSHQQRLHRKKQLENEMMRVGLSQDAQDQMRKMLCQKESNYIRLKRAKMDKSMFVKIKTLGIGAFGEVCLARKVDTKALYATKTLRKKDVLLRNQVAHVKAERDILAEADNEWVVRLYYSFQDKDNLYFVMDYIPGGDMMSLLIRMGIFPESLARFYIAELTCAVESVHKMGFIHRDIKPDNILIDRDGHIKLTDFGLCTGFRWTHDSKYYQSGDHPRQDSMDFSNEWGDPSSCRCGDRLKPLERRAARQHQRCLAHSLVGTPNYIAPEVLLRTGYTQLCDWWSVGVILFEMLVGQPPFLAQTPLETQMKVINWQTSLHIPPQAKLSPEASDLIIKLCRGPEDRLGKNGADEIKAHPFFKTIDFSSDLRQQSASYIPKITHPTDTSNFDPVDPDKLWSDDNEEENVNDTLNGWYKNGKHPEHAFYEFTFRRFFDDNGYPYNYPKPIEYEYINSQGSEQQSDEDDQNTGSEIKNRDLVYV
To be noted: at 10 µM.

Test [3] deals with Tyrosine-protein kinase ABL1 (Homo sapiens), P00519 [F317L]. The test is described as follows: Selectivity interaction (KinomeScan (DiscoverX)) EUB0000666a ABL1. The settings on record: at 10 µM.
Tyrosine-protein kinase ABL1 (Homo sapiens), P00519 [F317L], sequence (P00519 whole entry F317L): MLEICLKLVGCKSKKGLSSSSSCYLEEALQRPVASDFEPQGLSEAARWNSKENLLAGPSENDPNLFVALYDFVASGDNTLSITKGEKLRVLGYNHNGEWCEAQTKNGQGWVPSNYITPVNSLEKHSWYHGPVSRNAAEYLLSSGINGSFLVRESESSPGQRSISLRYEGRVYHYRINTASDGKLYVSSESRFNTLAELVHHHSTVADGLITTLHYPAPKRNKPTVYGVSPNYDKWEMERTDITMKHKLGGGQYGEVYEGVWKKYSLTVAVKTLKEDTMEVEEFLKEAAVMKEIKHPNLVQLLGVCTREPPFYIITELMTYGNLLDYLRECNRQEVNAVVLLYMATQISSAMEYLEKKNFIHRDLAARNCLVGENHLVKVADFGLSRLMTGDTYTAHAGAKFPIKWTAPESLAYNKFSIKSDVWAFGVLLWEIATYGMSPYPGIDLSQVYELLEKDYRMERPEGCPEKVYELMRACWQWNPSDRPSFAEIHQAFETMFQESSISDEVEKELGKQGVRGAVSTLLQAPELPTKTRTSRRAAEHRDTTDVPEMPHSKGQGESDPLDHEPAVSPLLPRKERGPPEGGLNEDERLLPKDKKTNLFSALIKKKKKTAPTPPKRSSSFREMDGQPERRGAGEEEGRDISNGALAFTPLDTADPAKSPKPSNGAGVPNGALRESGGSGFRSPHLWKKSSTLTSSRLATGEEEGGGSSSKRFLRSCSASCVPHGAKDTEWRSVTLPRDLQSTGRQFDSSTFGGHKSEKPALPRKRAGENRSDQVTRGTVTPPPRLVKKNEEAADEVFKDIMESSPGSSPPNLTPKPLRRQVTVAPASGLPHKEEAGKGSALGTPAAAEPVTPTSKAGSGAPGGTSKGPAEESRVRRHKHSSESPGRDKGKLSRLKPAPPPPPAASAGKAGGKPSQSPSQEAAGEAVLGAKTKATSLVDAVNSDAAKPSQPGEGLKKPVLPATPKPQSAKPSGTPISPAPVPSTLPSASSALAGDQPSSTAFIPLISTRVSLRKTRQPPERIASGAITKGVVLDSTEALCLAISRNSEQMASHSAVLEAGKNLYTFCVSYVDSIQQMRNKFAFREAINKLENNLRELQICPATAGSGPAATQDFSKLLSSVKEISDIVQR
The target in test [4] is Serine/threonine-protein kinase SIK2 (Homo sapiens) (UniProt Q9H0K1). As to the kind of experiment: Selectivity interaction (KinomeScan (DiscoverX)) EUB0000666a SIK2. To be noted: at 10 µM.
Test [5] has as its target Histone-lysine N-methyltransferase PRDM9 (Homo sapiens) (UniProt Q9NQV7). The test is described as follows: Selectivity interaction (Methyltransferase screen (Scintillation proximity assays)) EUB0000255b PRDM9. Background: SPA uses beads or plates that emit light when radiolabelled molecules are held near them.
The target of test [6] is Serine/threonine-protein kinase N2 (Homo sapiens, UniProt Q16513). The test is described as follows: Selectivity interaction (KinomeScan (DiscoverX)) EUB0000655a PKN2. The settings on record: at 10 µM.
Serine/threonine-protein kinase N2, sequence (Q16513 whole entry, looked up): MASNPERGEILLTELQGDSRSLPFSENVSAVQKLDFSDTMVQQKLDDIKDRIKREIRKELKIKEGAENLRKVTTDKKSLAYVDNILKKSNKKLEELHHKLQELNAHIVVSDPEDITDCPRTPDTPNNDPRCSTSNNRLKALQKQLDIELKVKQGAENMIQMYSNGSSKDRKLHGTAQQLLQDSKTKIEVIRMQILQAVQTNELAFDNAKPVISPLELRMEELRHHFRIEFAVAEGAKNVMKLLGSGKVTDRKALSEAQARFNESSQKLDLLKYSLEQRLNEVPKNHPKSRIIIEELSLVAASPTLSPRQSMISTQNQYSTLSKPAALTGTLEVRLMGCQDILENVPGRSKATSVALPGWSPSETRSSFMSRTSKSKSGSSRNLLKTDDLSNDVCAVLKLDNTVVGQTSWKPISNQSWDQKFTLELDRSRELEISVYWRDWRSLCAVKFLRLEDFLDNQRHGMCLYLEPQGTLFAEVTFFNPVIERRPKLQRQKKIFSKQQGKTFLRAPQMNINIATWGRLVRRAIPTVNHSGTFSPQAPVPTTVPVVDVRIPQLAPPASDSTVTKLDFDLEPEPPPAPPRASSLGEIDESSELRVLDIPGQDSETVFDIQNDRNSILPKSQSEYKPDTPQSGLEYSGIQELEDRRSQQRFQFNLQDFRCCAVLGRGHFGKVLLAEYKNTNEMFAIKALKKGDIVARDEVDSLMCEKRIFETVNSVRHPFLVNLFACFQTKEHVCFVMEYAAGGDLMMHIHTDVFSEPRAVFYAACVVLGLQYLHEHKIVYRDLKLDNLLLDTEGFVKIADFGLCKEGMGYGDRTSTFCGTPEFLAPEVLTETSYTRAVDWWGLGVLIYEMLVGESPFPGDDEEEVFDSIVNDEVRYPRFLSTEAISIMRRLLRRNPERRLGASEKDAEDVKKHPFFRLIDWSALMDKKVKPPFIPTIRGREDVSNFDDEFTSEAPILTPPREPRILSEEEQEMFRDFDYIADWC
Test [7] addresses Mitogen-activated protein kinase kinase kinase kinase 5 (Homo sapiens) (UniProt Q9Y4K4). The test is described as follows: Selectivity interaction (KinomeScan (DiscoverX)) EUB0001619a MAP4K5. To be noted: at 1 µM.
Test [8] addresses Cyclin-dependent kinase 2 (Homo sapiens, UniProt P24941). As to the kind of experiment: Selectivity interaction (ActivX KiNativ screen (kinase selectivity in THP-1 cell lysates)) EUB0000639a CDK2. The format is subcellular. To be noted: lysate, at 0.01 µM.
Another test has as its target Ephrin type-A receptor 4 (Homo sapiens, UniProt P54764). The test is described as follows: Selectivity interaction (Kinase panel (Invitrogen)) EUB0000639a EPHA4. The settings on record: at 200 nM.
Test [9] concerns the target Ribosomal protein S6 kinase alpha-1 (Homo sapiens, UniProt Q15418). As to the kind of experiment: Selectivity interaction (ActivX KiNativ screen (kinase selectivity in THP-1 cell lysates)) EUB0000639a RPS6KA1. It counts as subcellular. The settings on record: lysate, at 0.2 µM.
Test [10] has as its target Serine/threonine-protein kinase tousled-like 2 (Homo sapiens) (UniProt Q86UE8). The test is described as follows: Selectivity interaction (ActivX KiNativ screen (kinase selectivity in THP-1 cell lysates)) EUB0000639a TLK2. It counts as subcellular. The settings on record: lysate.
For test [11], the target named is Bone morphogenetic protein receptor type-1B (Homo sapiens, UniProt O00238). As to the kind of experiment: Selectivity interaction (KinomeScan (DiscoverX)) EUB0000045b BMPR1B.
Bone morphogenetic protein receptor type-1B, sequence (O00238 whole entry): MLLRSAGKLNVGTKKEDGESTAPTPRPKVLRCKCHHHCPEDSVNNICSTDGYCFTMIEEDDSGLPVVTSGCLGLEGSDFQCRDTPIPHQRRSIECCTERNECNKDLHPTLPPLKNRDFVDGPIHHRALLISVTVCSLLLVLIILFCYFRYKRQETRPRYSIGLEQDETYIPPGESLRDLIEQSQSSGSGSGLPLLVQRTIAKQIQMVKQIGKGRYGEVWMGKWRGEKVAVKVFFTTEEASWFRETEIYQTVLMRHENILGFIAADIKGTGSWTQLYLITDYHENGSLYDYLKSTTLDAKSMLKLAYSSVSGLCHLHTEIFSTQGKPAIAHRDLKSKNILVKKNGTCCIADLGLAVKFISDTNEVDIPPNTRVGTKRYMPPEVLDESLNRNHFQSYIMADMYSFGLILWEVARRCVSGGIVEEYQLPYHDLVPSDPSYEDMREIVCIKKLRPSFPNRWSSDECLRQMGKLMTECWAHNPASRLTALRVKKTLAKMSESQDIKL
For test [12], the target named is Ephrin type-A receptor 7 (Homo sapiens) (UniProt Q15375). As to the kind of experiment: Selectivity interaction (Upstate Kinase Profiler service (Millipore)) EUB0000056c EPHA7. To be noted: at 1 µM.
Test [13] deals with T2, cGMP-dependent protein kinase 2 (Homo sapiens) (UniProt Q13237).
T2 sequence (whole entry): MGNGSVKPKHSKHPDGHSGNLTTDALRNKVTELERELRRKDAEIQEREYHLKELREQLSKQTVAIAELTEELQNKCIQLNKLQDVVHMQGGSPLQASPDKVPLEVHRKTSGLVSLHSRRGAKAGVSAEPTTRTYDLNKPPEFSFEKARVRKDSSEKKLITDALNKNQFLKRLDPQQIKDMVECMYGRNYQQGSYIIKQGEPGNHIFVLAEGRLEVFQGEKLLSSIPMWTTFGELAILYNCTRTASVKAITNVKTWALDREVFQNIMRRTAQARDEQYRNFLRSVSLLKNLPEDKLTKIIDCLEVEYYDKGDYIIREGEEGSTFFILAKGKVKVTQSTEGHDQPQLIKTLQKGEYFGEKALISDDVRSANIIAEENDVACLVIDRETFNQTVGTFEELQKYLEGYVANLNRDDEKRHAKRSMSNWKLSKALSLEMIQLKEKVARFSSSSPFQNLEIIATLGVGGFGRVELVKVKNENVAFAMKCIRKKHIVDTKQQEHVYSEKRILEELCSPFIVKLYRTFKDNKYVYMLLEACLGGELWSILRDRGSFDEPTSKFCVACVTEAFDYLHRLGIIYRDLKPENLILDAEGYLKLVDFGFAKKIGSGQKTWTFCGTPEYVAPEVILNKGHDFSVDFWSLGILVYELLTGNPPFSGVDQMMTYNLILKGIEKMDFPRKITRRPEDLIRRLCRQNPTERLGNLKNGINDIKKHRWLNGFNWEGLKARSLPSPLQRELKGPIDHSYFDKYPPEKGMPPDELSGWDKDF
The test is described as follows: Selectivity interaction (Upstate Kinase Profiler service (Millipore)) EUB0000056c PRKG2. To be noted: at 1 µM.

Serine/threonine-protein kinase tousled-like 2 (Homo sapiens), sequence (Q86UE8 whole entry, looked up): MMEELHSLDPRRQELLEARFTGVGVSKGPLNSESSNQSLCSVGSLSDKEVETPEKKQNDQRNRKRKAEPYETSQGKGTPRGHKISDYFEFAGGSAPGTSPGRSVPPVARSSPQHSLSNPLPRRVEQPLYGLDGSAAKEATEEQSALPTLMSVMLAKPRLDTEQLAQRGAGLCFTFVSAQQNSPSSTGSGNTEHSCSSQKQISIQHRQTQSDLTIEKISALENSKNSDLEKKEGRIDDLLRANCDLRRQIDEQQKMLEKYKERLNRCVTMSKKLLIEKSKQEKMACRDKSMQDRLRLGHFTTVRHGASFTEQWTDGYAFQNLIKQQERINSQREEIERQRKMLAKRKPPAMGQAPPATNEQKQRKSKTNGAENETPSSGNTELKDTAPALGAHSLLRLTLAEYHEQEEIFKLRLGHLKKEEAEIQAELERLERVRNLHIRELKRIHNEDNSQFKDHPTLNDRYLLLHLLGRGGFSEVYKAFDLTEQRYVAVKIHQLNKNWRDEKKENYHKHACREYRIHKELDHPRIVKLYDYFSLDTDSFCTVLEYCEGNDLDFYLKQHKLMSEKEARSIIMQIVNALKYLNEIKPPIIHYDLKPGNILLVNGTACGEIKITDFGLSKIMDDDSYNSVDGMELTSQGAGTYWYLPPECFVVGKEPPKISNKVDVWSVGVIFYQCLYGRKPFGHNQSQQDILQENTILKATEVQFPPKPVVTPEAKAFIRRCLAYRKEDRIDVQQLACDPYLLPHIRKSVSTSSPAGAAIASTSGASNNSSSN
Histone-lysine N-methyltransferase PRDM9 (Homo sapiens), sequence (Q9NQV7 whole entry): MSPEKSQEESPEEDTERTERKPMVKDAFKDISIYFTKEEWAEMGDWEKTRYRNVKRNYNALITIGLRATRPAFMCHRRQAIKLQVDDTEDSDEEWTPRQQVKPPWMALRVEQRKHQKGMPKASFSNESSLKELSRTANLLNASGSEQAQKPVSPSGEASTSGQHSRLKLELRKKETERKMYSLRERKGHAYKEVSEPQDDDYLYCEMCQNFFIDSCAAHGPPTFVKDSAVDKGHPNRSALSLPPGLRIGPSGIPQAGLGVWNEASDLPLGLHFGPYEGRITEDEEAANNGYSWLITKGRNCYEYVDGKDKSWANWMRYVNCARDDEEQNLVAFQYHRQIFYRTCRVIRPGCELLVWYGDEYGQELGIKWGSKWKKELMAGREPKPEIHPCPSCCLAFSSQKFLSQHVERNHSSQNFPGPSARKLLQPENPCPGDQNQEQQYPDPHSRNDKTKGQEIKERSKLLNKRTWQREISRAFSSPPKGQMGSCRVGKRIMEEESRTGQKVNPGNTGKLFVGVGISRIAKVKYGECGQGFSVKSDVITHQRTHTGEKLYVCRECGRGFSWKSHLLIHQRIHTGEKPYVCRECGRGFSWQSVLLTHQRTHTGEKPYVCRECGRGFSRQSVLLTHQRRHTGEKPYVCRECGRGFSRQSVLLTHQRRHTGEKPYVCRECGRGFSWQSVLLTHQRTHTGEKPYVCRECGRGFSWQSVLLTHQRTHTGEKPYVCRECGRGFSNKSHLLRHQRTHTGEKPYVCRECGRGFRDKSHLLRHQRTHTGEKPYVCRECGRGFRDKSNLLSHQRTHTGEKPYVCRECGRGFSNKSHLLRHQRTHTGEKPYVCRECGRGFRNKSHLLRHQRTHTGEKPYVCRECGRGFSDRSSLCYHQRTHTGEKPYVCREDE
NT-3 growth factor receptor, sequence (Q16288 32-839 limits assumed): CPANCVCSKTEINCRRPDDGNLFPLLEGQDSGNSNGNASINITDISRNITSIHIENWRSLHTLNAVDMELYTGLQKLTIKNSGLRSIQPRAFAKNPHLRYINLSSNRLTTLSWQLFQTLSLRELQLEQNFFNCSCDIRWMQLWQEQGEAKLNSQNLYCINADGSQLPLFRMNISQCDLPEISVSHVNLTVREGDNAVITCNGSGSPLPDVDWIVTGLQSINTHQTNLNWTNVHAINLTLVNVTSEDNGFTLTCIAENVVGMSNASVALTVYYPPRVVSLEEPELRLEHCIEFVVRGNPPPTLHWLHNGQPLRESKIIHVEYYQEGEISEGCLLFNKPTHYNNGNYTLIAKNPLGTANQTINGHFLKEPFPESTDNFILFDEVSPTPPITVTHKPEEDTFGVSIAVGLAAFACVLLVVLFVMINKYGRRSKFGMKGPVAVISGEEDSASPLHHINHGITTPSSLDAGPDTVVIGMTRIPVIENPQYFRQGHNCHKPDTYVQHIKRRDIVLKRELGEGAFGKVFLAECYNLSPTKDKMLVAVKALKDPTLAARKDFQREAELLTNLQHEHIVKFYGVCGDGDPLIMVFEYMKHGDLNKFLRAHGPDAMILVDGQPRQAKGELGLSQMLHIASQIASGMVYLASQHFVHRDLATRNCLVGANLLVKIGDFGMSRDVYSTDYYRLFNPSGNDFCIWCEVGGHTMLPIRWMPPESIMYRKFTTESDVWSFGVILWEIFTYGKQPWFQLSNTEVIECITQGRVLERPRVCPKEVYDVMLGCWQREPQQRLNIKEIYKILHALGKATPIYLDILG

With `CNC(=O)Nc1ccc(-c2nc(N3CC4CCC(C3)O4)c3cnn(C4CCC5(CC4)OCCO5)c3n2)cc1`, in [1], the % of control worked out at 93%.
The compound `Cc1cc([C@@H](C)Nc2ccccc2C(=O)O)c2nc(N3CCOCC3)cc(=O)n2c1` [AZD-6482] had a % of control in test [2] of 100%.
As to `O=C(NOC[C@H](O)CO)c1ccc(F)c(F)c1Nc1ccc(I)cc1F`, the % of control in test [3] came out at 86%; in test [4], 92%.
Turning to `COCCN1CCC(c2cc(CN(C)C(=O)c3cccc(Oc4ccccc4)c3)ccn2)CC1`, the values for the % activity in test [5] (at 1 µM) and in test [5] (at 10 µM) were greater than 95% and greater than 90%, respectively.
As for `CN(C)CCOc1ccc(-c2nc(-c3ccncc3)c(-c3ccc4c(c3)CC/C4=N\O)[nH]2)cc1`, in [6], the % of control was determined as 100%.
Take `N#Cc1cccc(-c2c[nH]c3ncnc(N4CCOCC4)c23)c1`: the % of control in [7] is 53%.
For `CC[C@@H]1[C@H](F)C(=O)N[C@@H]1COc1nccc2cc(C(N)=O)c(OC)cc12` [ZIMLOVISERTIB], the % of inhibition came to 0.3% in test [8]; 6.54% at Ephrin type-A receptor 4; 13.8% in [9]; 16.6% in [10] (at 0.01 µM); 2.6% in test [10] (at 0.04 µM); 18.7% in test [10] (at 0.2 µM). For the same compound, the % of inhibition in test [10] (at 1 µM) is 46.3%; in test [10] (at 5 µM), 73.5%.
For `C=CC(=O)Nc1cc(-n2c(=O)ccc3cnc4ccc(-c5ccc(NS(C)(=O)=O)cc5)cc4c32)ccc1C`, the figures for the % of control in test [11] (at 1 µM) and in test [11] (at 10 µM) were 100% and 80%, respectively.
Turning to `Cc1ccc(-c2ccc3c(ccc4sc5c(c43)NC[C@@H](C)NC5=O)n2)cn1`, the % of inhibition in test [12] was -5%; in test [13], -6%.
